Laboratory results reported in patent publication US20230097475A1, “TREATMENT FOR CHONDRODYSTROPHIA” (Kyoto University, priority 2020, published 2023).

What was measured:
mutant FGFR3G^380R/+ = settings: at 50 nM; cited from earlier work
[1] = system: FGFR3^Y367C/+ mouse model of achondroplasia; settings: reported in NPL 6; cited from earlier work
[2] = system: TD1-iPS cells and ACH-iPS cells; test: Drug efficacy in disease iPS cell models, chondrocyte differentiation; format: cell-based, human
Text: iPS cell lines were established from dermal fibroblasts of patients with thanatophoric dysplasia type I (TD1, R248C) and cartilage intangibility (ACH, […]), and dermal fibroblasts of healthy individuals, and induced their differentiation into chondrocytes. Cartilage tissue was formed from healthy iPS cells, whereas a cartilage component was reduced in tissue induced from TD1-iPS cells and tissue induced from ACH-iPS cells (Yamashita et al., Nature, 2014, 513 (7519): 507-11).
Rosuvastatin was used as a positive control. As evaluation items, tissue section staining (Safranin staining), and the expression of mRNAs of COL2A1 and Aggrecan (ACAN) were used as indexes. For testing significance, an unpaired test was conducted. In FIG. 13, * indicates p<0.05.

FGFR3 ACH mice [3] = test: Bone extension effect using achondroplasia model mice, male and female (Example 3); format: in vivo; settings: male 1, 3 or 10 mg/kg, female 1, 3 or 6 mg/kg, measured at 43 days old, vs vehicle group
Procedure: (§1) FGFR3 ACH mice (Naski, M. C. et al., Development, 1998, 125(24): 4977-88; hereinbelow, simply referred to as ACH mice) were used. FVB strain ACH mice were subjected to artificial insemination to produce a large number of F1 hybrid mice. Genomic DNA was then extracted, and the gene type was determined by a PCR method. […] Mice at the age of 43 days were euthanized, and the weight measurement and the bone (femur, tibia, and ulna) length measurement by X-ray photographing were performed. The X-ray photographing was performed using a Faxitron X-Ray DX-50 (AcroBio Corporation), and the measurements were performed with Image J. For testing significance, a Dunnett's multiple comparison test was conducted. In FIGS. 1 to 5, * indicates p<0.05, ** indicates p<0.01, and *** indicates p<0.001.
For testing significance, a Dunnett's multiple comparison test was conducted. In FIGS. 6 to 11, * indicates p<0.05, ** indicates p<0.01, *** indicates p<0.001, and **** indicates p<0.0001.

FGFR3 ACH mice [4] = test: Bone extension effect using achondroplasia model mouse (Example 2); format: in vivo
Procedure: as §1
Subsequently, the femur was isolated from the mice after dosing. The cartilage growth plate was then stained with safranin O, and the length thereof was measured. The average width of the growth plate of ACH mice was 148.3.

[5] = 1 nM, 10th week of differentiation induction, vs cells free of Compound 1, FIG. 13

| SMILES | Kinase inhibitory effect (mutant FGFR3G^380R/+) | Treatment effect on mouse model of achondroplasia [1] | Safranin staining of glycosaminoglycans (cartilage extracellular matrix) ([2]; 1 nM added at each medium change from day 3, analysis at 10th week of differentiation induction, FIG. 12) | Expression of mRNA of ACAN [2, 5] | Expression of mRNA of COL2A1 [2, 5] | Bone extension effect (femur, tibia, ulna length) (FGFR3 ACH mice [3]) | Average width of the femur growth plate (safranin O staining) (FGFR3 ACH mice [4]; ACH mice after dosing, dose not stated, ACH mice without compound 148.3, FIG. 4) [μm] | Bone extension effect (femur, tibia, ulna length; growth plate cartilage thickness) (FGFR3 ACH mice [4]; ACH mice, 0.1, 1 or 3 mg/kg intraperitoneal once a day, 5 days on 2 days off, age 21 to 42 days, measured at 43 days old, vs vehicle group) |
| --- | --- | --- | --- | --- | --- | --- | --- | --- |
| CCN1CCN(c2ccc(Nc3cc(N(C)C(=O)Nc4c(Cl)c(OC)cc(OC)c4Cl)ncn3)cc2)CC1 [NVP-BGJ398] | has a kinase inhibitory effect | has a treatment effect | – | – | – | – | – | – |
| C=CC(=O)N1CC[C@H](n2nc(C#Cc3cc(OC)cc(OC)c3)c3c(N)ncnc32)C1 [Compound 1, 1-[(3S)-3-[4-amino-3-[2-(3,5-dimethoxyphenyl)ethynyl]-1H-pyrazolo[3,4-d]pyrimidin-1-yl]-1-pyrrolidinyl]-2-propen-1-one] | – | – | positive safranin staining image was observed | increased | increased | concentration-dependent bone extension effect was observed | 206.4 | concentration-dependent bone extension effect was observed |
